The assay deals with T1, sodium ion channel of Trpm5 bitter receptor (Mus musculus, UniProt Q9JJH7).
T1 construct: Put the removed tongue in a 2 ml EP tube, add 1-1.5 ml of 0.25% trypsin solution; from tissue; host or cells: cells dissociated with trypsin from mouse tongue
T1 sequence (Q9JJH7 1-1158): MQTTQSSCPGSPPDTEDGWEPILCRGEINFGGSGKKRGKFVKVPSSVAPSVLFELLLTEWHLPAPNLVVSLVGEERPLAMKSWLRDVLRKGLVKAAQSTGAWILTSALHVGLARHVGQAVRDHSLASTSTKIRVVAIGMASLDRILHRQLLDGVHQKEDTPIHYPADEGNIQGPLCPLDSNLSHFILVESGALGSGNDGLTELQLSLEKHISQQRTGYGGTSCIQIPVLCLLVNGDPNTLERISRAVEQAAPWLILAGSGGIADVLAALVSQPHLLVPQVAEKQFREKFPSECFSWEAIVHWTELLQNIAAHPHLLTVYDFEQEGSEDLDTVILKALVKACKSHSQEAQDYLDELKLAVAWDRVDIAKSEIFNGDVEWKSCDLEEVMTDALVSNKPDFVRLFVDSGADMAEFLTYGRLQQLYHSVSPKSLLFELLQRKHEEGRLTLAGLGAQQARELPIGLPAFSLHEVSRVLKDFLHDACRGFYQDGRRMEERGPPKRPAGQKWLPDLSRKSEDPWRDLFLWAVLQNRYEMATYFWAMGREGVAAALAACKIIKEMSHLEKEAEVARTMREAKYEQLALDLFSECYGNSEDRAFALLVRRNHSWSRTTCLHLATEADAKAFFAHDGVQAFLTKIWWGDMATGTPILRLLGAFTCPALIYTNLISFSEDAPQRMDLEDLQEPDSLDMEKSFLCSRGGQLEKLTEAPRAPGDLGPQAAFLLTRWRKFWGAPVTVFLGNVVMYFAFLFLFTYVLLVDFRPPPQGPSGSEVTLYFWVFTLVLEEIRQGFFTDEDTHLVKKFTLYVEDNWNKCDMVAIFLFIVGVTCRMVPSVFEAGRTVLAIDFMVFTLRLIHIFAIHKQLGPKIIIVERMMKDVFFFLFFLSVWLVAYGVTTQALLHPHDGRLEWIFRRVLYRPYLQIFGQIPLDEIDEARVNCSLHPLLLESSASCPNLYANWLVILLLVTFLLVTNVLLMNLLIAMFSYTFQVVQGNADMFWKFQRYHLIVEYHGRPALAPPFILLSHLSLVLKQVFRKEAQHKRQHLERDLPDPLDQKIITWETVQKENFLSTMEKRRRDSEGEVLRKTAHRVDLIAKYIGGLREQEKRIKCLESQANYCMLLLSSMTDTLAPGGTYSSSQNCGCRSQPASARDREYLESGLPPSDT
Description: Immunofluorescence experiment of sodium ion channels in mouse tongue cells stimulated with bitter agent. In kind it is cell-based, mice. The settings on record: for blocking effect on the sodium ion channel (result analysis in words): judged from change of sodium ion fluorescence after bitter drug. As to the method: The mouse was killed by dislocation, and the tongue was removed (minimizing tongue bleeding), disinfected with alcohol for 2 minutes (adding sodium citrate for anticoagulation), and washed with D-Hanks solution or rinsed with 10 ml of saline solution drawn by a syringe.
Take out the centrifuge tube from the constant temperature incubator, shake for 2 minutes, blow the undigested tongue several times with the gun tip, take out the tongue, cover it with the EP tube cap, put it in a centrifuge, centrifuge at 3000 rpm for 3 minutes, discard the supernatant, add cell culture medium (containing 10% inactivated serum), blow and disperse the cells, and place it in a 37° C. constant temperature incubator for 30 min to allow the cells to recover.
(1) Take out the prepared ENG-2 AM storage solution and warm it to room temperature for use, keeping it away from light. The concentration of the pre-prepared stock solution is 2 mM and it is stored at −18° C. for future use.
(2) Dilute the ENG-2 AM+DMSO stock solution to a […] working solution using serum-free culture medium.
(3) Load the probe in a serum-free culture medium containing an appropriate concentration of AM probe.
Take out the cells from the incubator, centrifuge, and discard the culture medium. Wash the cells once with D-Hanks solution, centrifuge, and discard the culture medium. Add 1 ml of culture medium again, then add 300 ul of sodium ion probe dilution solution, blow and disperse the cells, and incubate the cells at room temperature or 37° C. for 1 hour.
At the end of incubation, centrifuge at 100 rpm for 2 minutes, discard the supernatant, add 500 ul of cell culture medium without AM probe, blow and disperse the cells, and incubate for 20-60 min to ensure that the cells completely deesterify the AM group.
(4) Take 10 ul of incubation solution and drop it into the center of the cell counting plate, cover it with a slide, and observe it under a fluorescence microscope.
(5) Use a low-power microscope to find the cells, open the fluorescence path, detect the fluorescence signal with a fluorescence microscope, change to a high-power microscope, find the appropriate observation cells, observe and take pictures to record the initial signal.
(2) Experimental drugs: Add 5 ul of the tested drug to one side of the cover glass on the cell counting plate, use absorbent paper to absorb water on the opposite side, let the solution soak the cells, and then use a fluorescence microscope to observe and take 3-5 photos, one every 1-2 minutes; then add 5 ul of the standard bitter drug to one side of the cover glass on the cell counting plate, use absorbent paper to absorb water on the opposite side, let the solution soak the cells, and then use a fluorescence microscope to observe and take 3-5 photos, one every 1-2 minutes.
(5) Data analysis: Use Image J-Fiji software to analyze the images, compare the average values of the fluorescence pixels, remove the base number and compare them in the table, draw FIGS. 4-6, and use SPSS18.0 to perform chi-square tests to compare the differences between the data groups.

The mark [1] stands for this setting: Bitterant 60 s (2% metronidazole solution).
[2] abbreviates: Bitterant 120 s (2% metronidazole solution).
Where [3] appears, read: Bitterant 180 s (2% metronidazole solution).
[4] abbreviates: Bitterant 240 s (2% metronidazole solution).
Where [5] appears, read: Initial (before addition of drug), sodium ion dye ENG-2 AM.

Consider `C=CC(C)(O)CCC=C(C)C` (stereo not drawn) [Linalool, linalool], for which the “blocking effect on the sodium ion channel (result analysis in words)” value (“blocking effect” below) is reported as “can block the sodium ion channel of Trpm5 bitter receptor”. In addition, where the note is “Addition of drugs”, the “average value of fluorescence brightness” value was found to be 27.648 and the “average value of fluorescence brightness, base number removed” value (“average value … base number removed” for short) was −0.135. For the same compound, the “average value of fluorescence brightness” value under setting [1] came to 27.649. Moreover, under setting [2], the “average value of fluorescence brightness” value was 27.44 and the “average value … base number removed” value is −0.343. Moreover, under setting [3], the “average value of fluorescence brightness” value was found to be 27.426 and the “average value … base number removed” value is reported as −0.357. For the same compound, under setting [4], the “average value of fluorescence brightness” value was determined as 26.46 and the “average value … base number removed” value is on record as −1.323. The “average value … base number removed” value (Initial) was determined as 0. For the same compound, under setting [5], the “average value of fluorescence brightness” value is listed as 27.783.
In the case of `CCCCC[C@H](O)CC(=O)CCc1ccc(O)c(OC)c1` [Gingerol, 6-gingerol], the “blocking effect” value is recorded as “can block the sodium ion channel of Trpm5 bitter receptor”. Moreover, for the setting “Addition of drugs”, the “average value of fluorescence brightness” value was determined as 25.244 and the “average value … base number removed” value was −0.093. Further, under setting [1], the “average value of fluorescence brightness” value came to 25.15 and the “average value … base number removed” value is on record as −0.187. Also, under setting [2], the “average value of fluorescence brightness” value came to 25.137 and the “average value … base number removed” value is recorded as −0.2. Under setting [3], the “average value of fluorescence brightness” value is 25.08 and the “average value … base number removed” value was −0.257. Also, where the note is “Initial”, the “average value … base number removed” value is 0. Besides, the “average value of fluorescence brightness” value under setting [5] stood at 25.337.
Regarding `CC1CCC(C(C)C)C(=O)C1` (stereo not drawn) [Menthone, 5-methyl-2-isopropylcyclohexanone], the “blocking effect” value is reported as “can block the sodium ion channel of Trpm5 bitter receptor”. Moreover, under “Addition of drugs”, the “average value of fluorescence brightness” value came out at 25.48 and the “average value … base number removed” value is on record as −0.076. Further, under setting [1], the “average value of fluorescence brightness” value stood at 25.415 and the “average value … base number removed” value is listed as −0.141. Also, under setting [2], the “average value of fluorescence brightness” value turned out to be 25.447 and the “average value … base number removed” value was −0.109. Also, under setting [3], the “average value of fluorescence brightness” value was found to be 25.4 and the “average value … base number removed” value is on record as −0.156. The “average value … base number removed” value (Initial) came to 0. Also, the “average value of fluorescence brightness” value under setting [5] is given as 25.556.
Take `O=CC=Cc1ccccc1` [Cinnamaldehyde, 3-phenyl-2-propenal]: the “blocking effect” value is on record as “can block the sodium ion channel of Trpm5 bitter receptor”. Under “Addition of drugs”, the “average value of fluorescence brightness” value was found to be 31.017 and the “average value … base number removed” value is −0.328. Further, under setting [1], the “average value of fluorescence brightness” value came out at 30.893 and the “average value … base number removed” value is on record as −0.452. Also, under setting [2], the “average value of fluorescence brightness” value amounted to 30.691 and the “average value … base number removed” value is on record as −0.654. In addition, under setting [3], the “average value of fluorescence brightness” value was 30.597 and the “average value … base number removed” value is given as −0.748. Moreover, where the note is “Initial”, the “average value … base number removed” value was 0. Under setting [5], the “average value of fluorescence brightness” value is listed as 31.345.
As for `COc1cc(C(=O)O)ccc1O` [Vanillic acid, 3-methoxy-4-hydroxybenzoic acid], the “blocking effect” value was “have poor effects and do not have bitterness masking effect”. Also, where the note is “Addition of drugs”, the “average value of fluorescence brightness” value is 26.795 and the “average value … base number removed” value is −0.107. Moreover, under setting [1], the “average value of fluorescence brightness” value amounted to 26.689 and the “average value … base number removed” value is listed as −0.213. In addition, under setting [2], the “average value of fluorescence brightness” value was found to be 26.699 and the “average value … base number removed” value is reported as −0.203. Moreover, under setting [3], the “average value of fluorescence brightness” value was found to be 26.725 and the “average value … base number removed” value is on record as −0.177. Moreover, the “average value … base number removed” value (Initial) is recorded as 0. For the same compound, the “average value of fluorescence brightness” value under setting [5] was found to be 26.902.
Consider `COc1ccc(CCN(C)CCCC(C#N)(c2ccc(OC)c(OC)c2)C(C)C)cc1OC` (stereo not drawn) [Verapamil, 5-((3,4-dimethoxyphenylethyl)methylamino)-2-(3,4-dimethoxyphenyl)-2-isopropylvaleronitrile, reference compound], for which the “blocking effect” value is “have poor effects and do not have bitterness masking effect”. Besides, under “Addition of drugs”, the “average value of fluorescence brightness” value came to 27.77 and the “average value … base number removed” value is −0.085. Moreover, under setting [1], the “average value of fluorescence brightness” value stood at 28.089 and the “average value … base number removed” value is on record as 0.234. In addition, under setting [2], the “average value of fluorescence brightness” value is recorded as 27.651 and the “average value … base number removed” value was −0.204. Under setting [3], the “average value of fluorescence brightness” value is reported as 27.574 and the “average value … base number removed” value is −0.281. In addition, the “average value … base number removed” value (Initial) turned out to be 0. The “average value of fluorescence brightness” value under setting [5] was 27.855.
For the compound `CC(C)[C@@H]1CC[C@@H](C)C[C@H]1OC(=O)CCC(=O)O` [Menthyl succinate], the “blocking effect” value is on record as “can block the sodium ion channel of Trpm5 bitter receptor”. Under “Addition of drugs”, the “average value of fluorescence brightness” value was determined as 28.92 and the “average value … base number removed” value came out at 0.041. Further, under setting [1], the “average value of fluorescence brightness” value was found to be 28.747 and the “average value … base number removed” value is −0.132. Under setting [2], the “average value of fluorescence brightness” value is 28.8 and the “average value … base number removed” value was −0.079. For the same compound, under setting [3], the “average value of fluorescence brightness” value is recorded as 28.851 and the “average value … base number removed” value is −0.028. Moreover, where the note is “Initial”, the “average value … base number removed” value turned out to be 0. Further, under setting [5], the “average value of fluorescence brightness” value came to 28.879.

These data come from patent US20250108023A1, “Products for Masking Bitterness” (The Third People's Hospital of Henan Province, priority 2023, published 2025).
